Results: ChEMBL document CHEMBL5137001, “Examination of multiple Trypanosoma cruzi targets in a new drug discovery approach for Chagas disease” (Bioorg Med Chem, 2022)
Values belong to the compound of their own block, whether it stands above or below them.

Columns and labels:
[1] = biological target: T1, Triosephosphate isomerase, glycosomal (Trypanosoma cruzi, UniProt P52270); test: Inhibition of recombinant Trypanosoma cruzi TIM using glyceraldehyde 3-phosphate as substrate
[2] = biological target: T2, Bifunctional dihydrofolate reductase-thymidylate synthase (Trypanosoma cruzi, UniProt Q27793); test: Inhibition of recombinant Trypanosoma cruzi DHFR-TS assessed as inhibition constant
[3] = biological target: T1, Triosephosphate isomerase, glycosomal; test: Inhibition of Trypanosoma cruzi TIM expressed in Escherichia coli using glyceraldehyde 3-phosphate as substrate preincubated for 2 hrs in presence of NADH/alphaGDPH by spectrophotometry
[4] = biological target: T1, Triosephosphate isomerase, glycosomal; test: Inhibition of Trypanosoma cruzi TIM
[5] = biological target: T1, Triosephosphate isomerase, glycosomal; test: Inhibition of Trypanosoma cruzi TIM expressed in Escherichia coli using glyceraldehyde 3-phosphate as substrate in presence of NADH/alphaGDPH measured after 2 hrs by spectrophotometry
Cruzipain [6] = biological target: T3, Cruzipain (Trypanosoma cruzi, UniProt P25779); test: Inhibition of Trypanosoma cruzi Cruzaine using Z-Phe-Arg-AMC as substrate preincubated for 15 mins measured for 10 mins by […]
Cruzipain [7] = biological target: T3, Cruzipain; test: Inhibition of Trypanosoma cruzi Cruzaine
[8] = Inhibition of Trypanosoma cruzi DHODH assessed as inhibition constant measured for 5 mins by spectrophotometry
[9] = biological target: Sterol 14-alpha demethylase (Trypanosoma cruzi (strain CL Brener), UniProt Q7Z1V1); test: Displacement of [3H]-Eubricol from C-terminal His-tagged full-length Trypanosoma cruzi Tulahuen strain CYP51 expressed in Escherichia coli HMS174(DE3) assessed as dissociation constant preincubated for 5 mins measured after 60 mins by enzymatic assay
Trypanothione reductase [10] = biological target: T4, Trypanothione reductase (Trypanosoma cruzi, UniProt P28593); test: Inhibition of Trypanosoma cruzi TR assessed as inhibition constant
Trypanothione reductase [11] = biological target: T4, Trypanothione reductase; test: Inhibition of Trypanosoma cruzi TR assessed as inhibition constant in presence of NADPH
Cruzipain [12] = biological target: T3, Cruzipain; test: Inhibition of Cruzaine derived from epimastigotes of Trypanosoma cruzi Tul2 strain using Z-FR-AMC as substrate assessed as release of 7-amino-4-methylcoumarin by fluorimetry
[13] = biological target: T2, Bifunctional dihydrofolate reductase-thymidylate synthase; test: Inhibition of Trypanosoma cruzi DHFR-TS assessed as inhibition constant using DHF as substrate in presence of NADPH by spectrophotometry
[14] = biological target: T2, Bifunctional dihydrofolate reductase-thymidylate synthase; test: Inhibition of Trypanosoma cruzi DHFR-TS in presence of NADPH by spectrophotometry
[15] = Inhibition of Trypanosoma cruzi PTR1 using folic acid as substrate in presence of NADPH by spectrophotometry

T1 sequence (P52270 whole entry): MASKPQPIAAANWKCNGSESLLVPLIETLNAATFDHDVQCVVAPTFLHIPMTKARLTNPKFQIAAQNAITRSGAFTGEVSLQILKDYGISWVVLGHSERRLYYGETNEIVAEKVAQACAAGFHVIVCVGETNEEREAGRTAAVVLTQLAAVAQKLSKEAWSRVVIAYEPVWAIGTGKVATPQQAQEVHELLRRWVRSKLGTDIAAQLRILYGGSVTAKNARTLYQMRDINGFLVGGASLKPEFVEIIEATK
T4 sequence (P28593 whole entry): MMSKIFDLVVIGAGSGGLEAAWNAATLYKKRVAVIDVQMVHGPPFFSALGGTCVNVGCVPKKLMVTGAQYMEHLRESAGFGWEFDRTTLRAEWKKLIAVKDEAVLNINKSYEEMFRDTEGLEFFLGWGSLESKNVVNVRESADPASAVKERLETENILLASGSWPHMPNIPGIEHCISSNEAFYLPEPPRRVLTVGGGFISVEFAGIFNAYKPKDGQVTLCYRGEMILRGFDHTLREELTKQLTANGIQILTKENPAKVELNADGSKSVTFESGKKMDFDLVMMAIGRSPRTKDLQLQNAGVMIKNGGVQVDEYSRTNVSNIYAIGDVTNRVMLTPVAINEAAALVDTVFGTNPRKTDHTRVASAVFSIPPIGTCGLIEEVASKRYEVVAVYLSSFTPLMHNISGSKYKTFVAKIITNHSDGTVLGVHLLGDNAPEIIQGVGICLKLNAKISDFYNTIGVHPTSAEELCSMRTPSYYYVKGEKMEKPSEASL
T3 sequence (P25779 whole entry): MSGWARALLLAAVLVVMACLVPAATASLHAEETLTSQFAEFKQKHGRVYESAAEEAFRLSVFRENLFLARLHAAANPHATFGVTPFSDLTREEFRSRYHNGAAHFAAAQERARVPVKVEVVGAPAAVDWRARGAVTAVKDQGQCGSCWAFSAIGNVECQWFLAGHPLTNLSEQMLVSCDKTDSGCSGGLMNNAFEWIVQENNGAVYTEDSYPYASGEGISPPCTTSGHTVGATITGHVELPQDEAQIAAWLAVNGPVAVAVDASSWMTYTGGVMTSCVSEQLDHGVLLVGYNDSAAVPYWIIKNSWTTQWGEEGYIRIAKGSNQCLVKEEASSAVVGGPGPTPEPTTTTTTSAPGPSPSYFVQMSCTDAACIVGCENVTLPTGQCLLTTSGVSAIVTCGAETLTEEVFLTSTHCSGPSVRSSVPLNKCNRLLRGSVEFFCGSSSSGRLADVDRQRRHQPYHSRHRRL
T2 sequence (Q27793 whole entry): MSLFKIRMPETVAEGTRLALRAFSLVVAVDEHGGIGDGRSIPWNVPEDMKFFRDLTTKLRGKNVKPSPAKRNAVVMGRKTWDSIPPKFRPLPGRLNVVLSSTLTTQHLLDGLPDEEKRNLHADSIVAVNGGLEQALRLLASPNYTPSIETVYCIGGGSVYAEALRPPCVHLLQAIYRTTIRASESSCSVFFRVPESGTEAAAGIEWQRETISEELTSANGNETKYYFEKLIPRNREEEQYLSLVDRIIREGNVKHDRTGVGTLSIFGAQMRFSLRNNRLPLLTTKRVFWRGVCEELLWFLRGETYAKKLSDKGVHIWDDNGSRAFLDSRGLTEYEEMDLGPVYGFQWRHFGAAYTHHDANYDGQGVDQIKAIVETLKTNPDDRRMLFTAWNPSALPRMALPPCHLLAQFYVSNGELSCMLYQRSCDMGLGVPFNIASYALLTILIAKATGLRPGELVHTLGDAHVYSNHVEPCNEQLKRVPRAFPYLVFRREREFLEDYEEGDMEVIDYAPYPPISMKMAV
Sterol 14-alpha demethylase, sequence (Q7Z1V1 whole entry): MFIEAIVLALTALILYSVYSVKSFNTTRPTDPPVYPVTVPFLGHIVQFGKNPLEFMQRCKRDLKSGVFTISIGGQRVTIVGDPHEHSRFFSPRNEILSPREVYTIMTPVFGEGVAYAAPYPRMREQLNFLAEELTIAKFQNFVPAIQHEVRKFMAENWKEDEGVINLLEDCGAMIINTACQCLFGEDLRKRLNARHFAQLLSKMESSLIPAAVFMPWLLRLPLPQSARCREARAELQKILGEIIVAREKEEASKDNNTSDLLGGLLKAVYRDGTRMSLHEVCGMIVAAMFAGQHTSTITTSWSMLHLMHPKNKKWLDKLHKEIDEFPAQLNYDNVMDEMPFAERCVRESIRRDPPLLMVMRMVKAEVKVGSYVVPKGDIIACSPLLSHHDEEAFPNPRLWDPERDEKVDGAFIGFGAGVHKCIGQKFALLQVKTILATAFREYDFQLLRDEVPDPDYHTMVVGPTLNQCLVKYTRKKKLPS

- Ki [2]: 0.023 µM
Compound: CC(C)Oc1cccc(Cc2cnc(N)nc2N)c1

- IC50 [1]: 8 µM
Compound: Cc1ccc2nc(-c3ccc4nc(-c5ccc(N)cc5)sc4c3)sc2c1S(=O)(=O)O

- IC50 [5]: 11 µM
Compound: COc1ccc(-c2c/c(=[S+]/CC(C)=O)ss2)cc1

- IC50 (Cruzipain [7]): 20 µM
Compound: CCOC(=O)/C=C/C(=O)[C@H](CC(C)C)NC(=O)[C@@H](CC(=O)c1ccccc1)Cc1ccccc1

- Ki [8]: 0.02 µM
Compound: O=C1NC(=O)C(CCc2ccc3cc(C(=O)O)ccc3c2)C(C(=O)O)N1 (configuration not stated)

- Kd [9]: 0.024 µM
Compound: OC(Cn1cnnn1)(c1ccc(F)cc1F)C(F)(F)c1ccc(-c2ccc(OCC(F)(F)F)cn2)cn1 (configuration not stated)

- IC50 [4]: 3 µM
Compound: O=C(CSc1nc2ccccc2[nH]1)Nc1ncc([N+](=O)[O-])s1

- Ki [2]: 0.03 µM
Compound: Nc1ncc(Cc2ccc(Oc3ccccc3)cc2)c(N)n1

- IC50 (Cruzipain [7]): 0.6 µM
Compound: COc1ccc(NC(=O)COC(=O)C(CC(C)C)N2C(=O)C(Cl)=C(Cl)C2=O)cc1 (configuration not stated)

- IC50 (Cruzipain [12]): 30.3 µM
Compound: CC(C)CC(NC(=O)c1ccc(-c2ccccc2)o1)C(=O)NC1(C#N)CC1 (configuration not stated)

- Ki [13]: 0.0066 µM
Compound: COc1cc(NCc2ccc3nc(N)ncc3c2C)cc(OC)c1OC

- IC50 [14]: 0.11 µM
Compound: CN(Cc1cnc2nc(N)nc(N)c2n1)c1ccc(C(=O)N[C@@H](CCC(=O)O)C(=O)O)cc1 [METHOTREXATE]
- IC50 [15]: 0.038 nM

Further lines, the compound ahead of its results:

Compound: O=S(=O)(O)CCCSc1nc2ccccc2s1
- IC50 [1]: 33 µM

Compound: [O-][NH+]1c2ccc(O)cc2[NH+]([O-])c2cc(Cl)c(Cl)cc21 (configuration not stated)
- IC50 [3]: 26 µM

Compound: O=C(/C=C/C=C/c1ccco1)/C=C/C=C/c1ccco1
- IC50 [4]: 3 µM

Compound: O=C1/C(=C/C=C/c2ccco2)CCC/C1=C\C=C\c1ccco1
- IC50 (Cruzipain [6]): 37 µM

Compound: CC(C)CC(=O)c1ccc2c(c1)[n+]([O-])c(C(=O)C(C)C)c(C(F)(F)F)[n+]2[O-]
- Ki (Trypanothione reductase [10]): 19 µM

Compound: CN1CCN(CCn2ccc3cc(-c4ncc(C5(N6CCCC6)CCCCC5)s4)ccc32)CC1
- Ki (Trypanothione reductase [10]): 3.8 µM

Compound: O=C1C(Br)=C(Oc2ccc3ccccc3c2)C(=O)c2ccccc21
- Ki (Trypanothione reductase [11]): 1.1 µM

Compound: c1ccc(-c2sc(C3(N4CCCC4)CCCCC3)cc2-c2ccc3cc[nH]c3c2)cc1
- Ki (Trypanothione reductase [10]): 10 µM

Compound: Cc1ccc(C)c(OC2=CC(=O)c3ccncc3C2=O)c1
- Ki (Trypanothione reductase [11]): 6 µM
